We go through one molecule from patent publication US8962322B2, “Enhancers of induced pluripotent stem cell reprogramming” (City of Hope, priority 2012, dated 2015).

Test [1] deals with endogenous Oct4. In words: RT-PCR of endogenous Oct4 mRNA in treated MEFs. Format: cell-based, mouse. The settings on record: versus vehicle. The method, then:
MEFs were treated with vehicle control or OAC 1 to test whether OAC 1 activates endogenous Oct4 and Nanog gene transcription. […] Oct4, Sox2, and Nanog are central to the transcriptional regulatory hierarchy for ESC pluripotency, forming the core transcriptional regulatory circuitry in ESCs (37). […] OAC1 activated Sox2 mRNA expression, along with Oct4 and Nanog (FIG. 61).
(§1) RT-PCR analysis: Total RNA was purified with Trizol reagent (Invitrogen). Reverse transcription was performed with 1 μg of RNA using Omniscript® Reverse Transcription Kit (Qiagen). Quantitative PCR was performed using iTaq SYBR Green Supermix with Rox (Bio-rad) in Applied Biosystem Step one plus real-time PCR system. […]

Test [2] deals with human Nanog promoter. In words: Nanog-luc luciferase reporter assay (stably transfected CV1 cells). Format: cell-based.
For test [3], the system named is human Oct4 promoter. In words: Oct4-luc luciferase reporter assay (stably transfected CV1 cells). In kind it is cell-based. Conditions: for fold induction at 1 µM: compound at 1 μM, Oct4-luc cells, triplicates.
For test [4], the system named is p53. In words: RT-PCR of p53 expression in treated MEFs. In kind it is cell-based, mouse. The settings on record: MEFs treated for two days. The method, then:
Inhibition of the p53-p21 signaling increased reprogramming efficiency (26, 28-31, 41). To investigate whether compound OAC1 enhanced reprogramming efficiency by affecting this pathway, MEFs were treated with vehicle control or OAC1 and determined the expression level of p53 and p21 in the treated cells.
as §1

The mark [5] stands for this setting: OAC1 1 μM, BIO 2 μM, BIX 2 μM, AzaC 2 μM, Vc 25 μg/ml, Am580 10 nM, tranylcypromine 5 μM, VPA 0.5 mM, two days.
The mark [6] stands for this setting: triplicate luciferase reporter assays.

Where two headings read alike, the source gives them in different places.

On to `O=C(Nc1cc2cc[nH]c2cn1)c1ccccc1` [OAC1, N-(1H-6-azaindol-5-yl)benzamide], for which the “endogenous Oct4 mRNA expression” value in test [1] is reported as “activated”. For the same molecule, the “activation of Nanog-luc at 50 nM” value in test [2] (50 nM) is given as “substantial activation”. Besides, the fold induction at 1 µM in test [2] (Chlorocebus aethiops, CV-1, compound at 1 μM, Nanog-luc cells, triplicates) is 4.5; in test [3] (Homo sapiens, CV-1, 24 h, read-out: Oct4-luc Activity), not below 1.8; in test [3] (read-out: Oct4-luc fold Induction), 5. In test [2] (setting [5]), the “induction of Nanog-luc, comparison with known reprogramming enhancers (in words)” value is recorded as “potent induction”. The “activation of human Nanog reporter (in words)” value in test [2] (setting [6]) is “considerable activation”. Moreover, in test [3] (50 nM, two days after compound treatment), the “activation of Oct4-luc at 50 nM” value is “activated Oct4-luc considerably”. Also, in test [3] (setting [5]), the “induction of Oct4-luc, comparison with known reprogramming enhancers (in words)” value is “potent induction”. Further, in test [3] (dose response 50 nM to 1 μM, 2 to 7 days), the “concentration of highest induction of Oct4-luc” value came out at 1 µM. The “activation of human Oct4 reporter (in words)” value in test [3] (setting [6]) was “considerable activation”. Moreover, in test [4], the “p53 expression level versus DMSO” value is reported as “no significant difference”.
